Assay results as given in patent US7238213B2, “Cell-based assays employing voltage and calcium dyes” (priority 2001, dated 2007).

Experiments:
[1] = target: Gi-coupled D2 dopamine receptor (Homo sapiens, UniProt P14416); conditions: 300 nM, FIG. 29
DRD2 receptor = DRD2 receptor (Homo sapiens, UniProt P14416)
DRD2 receptor, sequence (P14416 whole entry): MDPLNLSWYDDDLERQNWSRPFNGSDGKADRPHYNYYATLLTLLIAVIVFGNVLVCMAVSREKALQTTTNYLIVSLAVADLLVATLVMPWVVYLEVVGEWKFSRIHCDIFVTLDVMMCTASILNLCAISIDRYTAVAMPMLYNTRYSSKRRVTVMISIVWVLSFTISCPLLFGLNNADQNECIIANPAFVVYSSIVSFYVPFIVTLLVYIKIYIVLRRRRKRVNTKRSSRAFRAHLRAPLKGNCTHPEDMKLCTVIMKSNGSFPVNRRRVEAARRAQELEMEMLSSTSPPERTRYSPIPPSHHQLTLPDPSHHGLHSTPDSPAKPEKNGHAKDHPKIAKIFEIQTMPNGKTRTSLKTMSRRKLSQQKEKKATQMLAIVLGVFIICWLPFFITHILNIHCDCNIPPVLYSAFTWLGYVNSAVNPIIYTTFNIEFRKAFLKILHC
Description: This kind of assay is figuratively dubbed as “upside down assay”, as the activation of receptor brings down the fluorescence signal from a highly activated level.

Gi-coupled D2 dopamine receptor, sequence (P14416 whole entry): as above

NCCc1ccc(O)c(O)c1 [dopamine]
calcium response [1]: does not affect calcium levels
time to maximal response (DRD2 receptor; 1 μM dopamine, 96-well, FLEXstation): about 400 seconds
time for forskolin-induced fluorescence signal to nearly return to the pre-forskolin level (DRD2 receptor; no PDE inhibitor, FIG. 28A): ≤ 7 min
